The source of these data is patent US6440971B1, “Binuclear complex” (A+ Science Invest AB, priority 1997, dated 2002).

One experiment relates to calf thymus DNA. Nature of the experiment: sodium dodecylsulphate-driven dissociation of the DNA complex. It is filed as binding. The note with it: [NaCl]=159 mM. On the procedure: While the association reaction is relatively insensitive to the ionic strength of the solution, the dissociation is much faster at physiological salt concentrations, however, the rate constant is still only 0.008 S^−1 at [NaCl]=159 mM.

Another experiment concerns DNA. Nature of the experiment: linear dichroism of complex bound to DNA. Format: binding. The note with it: 10 mM and 200 mM aqueous NaCl, [Ru]=5 μM, P/Ru=30; negative signals at 380 and 470 nm. From the text:
The properties of the Δ,Δ enantiomer of (I) regarding DNA binding was then studied.
The amplitude of the negative signals 380 and 470 nm indicate bis-intercalation of the complex (Lincoln, P. et al. JACS 118 (1996) 2644).

Another experiment relates to Lung carcinoma HBT182. Nature of the experiment: growth inhibition of tumour cell lines. The conditions noted are these: read-out: half maximum growth inhibitory concentration (IC50), Δ,Δ-enantiomers of (I)-(IV), Δ-enantiomer of (V).
Another experiment deals with SUDHL 1. Put plainly: growth inhibition of tumour cell lines. The note with it: read-out: half maximum growth inhibitory concentration (IC50), Δ,Δ-enantiomers of (I)-(IV), Δ-enantiomer of (V).
A further experiment concerns LAMA. Put plainly: growth inhibition of tumour cell lines. The conditions noted are these: read-out: half maximum growth inhibitory concentration (IC50), Δ,Δ-enantiomers of (I)-(IV), Δ-enantiomer of (V).

“μ-[N,N′-bis(12-cyano-12,13-dihydro-11H-cyclopentadipyrido[b:3,2-h:2′,3′-j]phenazine-12-carbonyl)-1,4-diaminobutane-N^4,N^5,N′^4,N′^5]-tetra (1,10-phenanthroline N^1,N^10) diruthenium(4+) -tetra-chloride [(I)]” returned a dissociation rate constant in the experiment on calf thymus DNA of 0.008 S^−1. Also, in the experiment with DNA, the DNA binding mode result was “bis-intercalation”. Besides, the values for the IC50 in the experiment with Lung carcinoma HBT182, in the experiment on SUDHL 1 and in the experiment with LAMA were 9 µM, 14 µM and 8 µM, respectively.
Take “μ-[N,N′-bis(12-cyano-12,3-dihydro-11H-cyclopentadipyrido[b:3,2-h:2′,3′-j]phenazine-12-carbonyl)-1,2-diaminoethane N^4,N^5,N^4′,N^5′]-tetra(1,10-phenanthroline N^1,N^10)-diruthenium(4+)-tetrachloride [(III)]”: the results for the IC50 in the experiment with Lung carcinoma HBT182, with SUDHL 1 and in the experiment on LAMA were 19 µM, 14 µM and 12 µM, respectively.
The corresponding values for “μ-[N,N′-bi (12-cyano-12,13-dihydro-11H-cyclopentadipyrido[b:3,2-h:7′,3′-j]phenazine-12-carbonyl)-1,2-diaminoethane N^4,N^5,N^4′,N^5′]-tetra(2,2′-bipyridine N^1,N^1′)-diruthenium(4+)-tetrachloride [(IV)]” are 10 µM, 22 µM and 16 µM.
The corresponding values for `[Cl-].[Cl-].[Ru+2].c1ccc2nc3c4cccnc4c4ncccc4c3nc2c1.c1cnc2c(c1)ccc1cccnc12.c1cnc2c(c1)ccc1cccnc12` [(V), reference compound] are 38 µM, 39 µM and 43 µM.
Taken in the same sequence, the figures for “Δ,Δμ-[N,N′-bis(12-cyano-12,13-dihydro-11H-cyclopentadipyrido[b:3,2-h:2′,3′-j]phenazine-12-carbonyl)-1,4-diaminobutane N^4N^5,N^4,N^5′]-tetra(2,2′-bipyridine N^1,N^1′)diruthenium(4+)-tetrachloride [(II)]” were 8 µM, 12 µM and 9 µM.
